According to patent US20220354957A1, “PEPTIDES TARGETING MACROPHAGES, AND CONJUGATES, COMPOSITIONS, AND USES THEREOF” (Twinpig Biolab, Inc., priority 2021, published 2022):

Tests used:
Type in all cases: cell-based, human
[1] = Cell viability test (CCK-8) of dKLA-conjugated alanine-substituted peptides
Experimental: (§1) THP-1 monocytes were differentiated into macrophages (M0) by 24 h incubation with 100 nM phorbol 12-myristate 13-acetate (PMA, Sigma) followed by 24 h incubation in RPMI medium (Invitrogen). Macrophages were polarized in M1 macrophages (M1) by incubation with 20 ng/ml of IFN-γ (Prospec) and 100ng/m1 of LPS (Sigma). Macrophage M2 polarization(M2) was obtained by incubation with 20 ng/ml of interleukin (IL) 4 (Prospec) and 20 ng/ml of interleukin 13 (Pro spec).
(§2) Polarized cells were treated with 1.5 μM MpepK, A12K, A14K, A17K, A18K, A22K, A25K or A26K peptides for 1 hour and further incubated in RPMI1640 growth medium for 24 hours. Cell viability was analyzed using the CCK-8 assay: CCK-8 reagent (Enzo Life Sciences) was added to each well; incubation was continued for 2 hours, and absorbance was measured at 450 nm with a microplate reader (Molecular Devices).
(§3) THP-1 cells (1×10^4 cells/well) were differentiated into macrophages with 100 nM PMA (MO) for 24 h and polarized into classical M1 macrophages by treatment of IFN-γ (20 ng/ml) and LPS (100 ng/ml) and LPS-stimulated macrophages (LPS-M1) were induced by LPS (1 m/ml) treatment for 24h. Cells were treated with 1.5 μM of A26K for 1 hour and further incubated in RPMI1640 growth medium for 24 hours. Cell viability was analyzed using the CCK-8 assay. CCK-8 reagent was added to each well and incubated for 1.5-2 hours. Absorbance was measured at 450 nm with a microplate reader.

M1 macrophages = test: as above; details: 1.5 μM, 1 hour then 24 hours, CCK-8, compared to control M1 macrophage
Experimental: as §1, §2, §3

[2] = Cytotoxicity in in vitro sepsis model (CCK-8); details: compared to control, read-out: inhibition (cytotoxic effect) in LPS-M1 macrophages
Experimental: as §3

LPS-M1 macrophages = test: Expression of pro-inflammatory genes in in vitro sepsis model (real-time quantitative PCR); details: 1.5 μM for 1 h, compared to LPS-M1 macrophages
Experimental: THP-1 cells (2×10^5 cells/well) were differentiated into macrophages with 100 nM PMA (MO) for 24h and polarized into classical M1 macrophages by treatment of IFN-γ (20 ng/ml) and LPS (100 ng/ml) and LPS-M1 macrophages were induced by LPS (1 m/ml) treatment for 2 h. Polarized cells were treated with 1.5 μM of A26K for 1 hour and further incubated in RPMI1640 growth medium for 24 hours. Expression levels of pro-inflammatory genes (IL-8, TNF-α, NF-kB, IL-1(3 and CXCL10) were quantified by real-time quantitative PCR.

CC[C@H](C)[C@H](NC(=O)[C@H](CC(C)C)NC(=O)[C@H](C)NC(=O)[C@@H]1CCCN1C(=O)[C@H](CC(C)C)NC(=O)CNC(=O)[C@@H](NC(=O)[C@@H](NC(=O)[C@H](CC(C)C)NC(=O)[C@@H](NC(C)=O)C(C)C)[C@@H](C)O)[C@@H](C)O)C(=O)N[C@@H](CO)C(=O)N[C@@H](Cc1c[nH]c2ccccc12)C(=O)N[C@H](C(=O)N[C@@H](CCCCN)C(=O)N[C@@H](CCCNC(=N)N)C(=O)N[C@@H](CCCCN)C(=O)N[C@@H](CCCNC(=N)N)C(=O)N[C@@H](CCC(N)=O)C(=O)N[C@@H](C)C(=O)NCC(=O)NCC(=O)NCC(=O)NCC(=O)N[C@@H](CO)C(=O)N[C@H](CCCCN)C(=O)N[C@H](CC(C)C)C(=O)N[C@H](C)C(=O)N[C@H](CCCCN)C(=O)N[C@H](CC(C)C)C(=O)N[C@H](C)C(=O)N[C@H](CCCCN)C(=O)N[C@H](CCCCN)C(=O)N[C@H](CC(C)C)C(=O)N[C@H](C)C(=O)N[C@H](CCCCN)C(=O)N[C@H](CC(C)C)C(=O)N[C@H](C)C(=O)N[C@H](CCCCN)C(=O)O)[C@@H](C)CC [A26K]
cytotoxicity ([1]; 1.5 μM, compared to control, read-out: inhibition of viability in M1 macrophages): 53%
IC50 ([1]; 0.01-10 μM, read-out: cytotoxicity IC50 in M1 macrophages): 1190 nM
cytotoxic effect in M1 macrophages (M1 macrophages): great significant selective cytotoxic effect
inhibition at 1.5 µM [2]: 37%
expression levels of IL8, TNF-α, IL-1β, NF-kB and CXCL10 enhanced by LPS stimulation (LPS-M1 macrophages): significantly inhibited
